Measurements from paper PMC7472354, “Enhanced Antimicrobial Activity of N-Terminal Derivatives of a Novel Brevinin-1 Peptide from The Skin Secretion of Odorrana schmackeri” (Toxins, 2020).
Read-outs that look alike come from different tables or passages of the source. Where a SMILES comes first, the peptide text is derived from it.

Experiments:
[1] = system: P. aeruginosa (ATCC 27853) biofilm; format: cell-based, Pseudomonas aeruginosa; settings: for MBIC50 / MBIC90: ATCC 27853, 24 h
Method: (§1) The anti-biofilm effects of all synthetic peptides were evaluated, which was described in our previous study. The organisms, including S. aureus (NCTC 10788), E. coli (NCTC 10418), MRSA (ATCC 12493), E. faecalis (NCTC 12697) and P. aeruginosa (ATCC 27853), were investigated in this study. Gram-positive bacteria were cultured in the TSB broth and Gram-negative bacteria were cultured in the LB broth. The anti-biofilm effects were determined based on the MBIC and MBEC of all the peptides. For the determination of MBIC, 5 × 10^5 CFU/mL bacterial cultures were incubated with the peptides concentrations (ranging from 1 µM to 512 µM) for 24 h. The sterilised medium and bacterial suspension without any treatment were used as the negative controls and positive controls, respectively. After incubation, wells were rinsed, fixed, stained, washed and dissolved with phosphate buffer saline (PBS), methanol (90%, v/v), crystal violet (0.1%, w/v), sterile deionised water and acetic acid (30%, v/v), respectively. The absorbance of dissolved stain was measured at a 595 nm using a Synergy HT plate reader (Biotech, Minneapolis, MN, USA).
(§2) For the MBEC assay, the peptide concentrations were prepared as above. The bacteria were cultured in the 96 well plate for 24–48 h, which allowed the formation of mature biofilm in the plate. Then, the bacterial culture was removed from the plate. The biofilm was further washed to remove the planktonic bacteria using PBS. Then, the fresh broth that contained different peptide concentrations was added in the plate for incubation of 24 h at 37 °C. After incubation, the plate was stained by crystal violet as mentioned above. The definition of MBIC can be given when compared to the negative control group (≥90%, MBIC90; ≥50%, MBIC50). The definition of the MBEC can be given when compared to the negative control group (≥90%, MBEC90; ≥50%, MBEC50).

[2] = system: Galleria mellonella larvae; assay: Toxicity to uninfected Galleria mellonella larvae; format: in vivo; settings: uninfected G. mellonella larvae injected with drug; n = 30 per group; vancomycin 20 mg/kg
Method: The in vivo study of antimicrobial activity of the peptides was evaluated using the larvae of Galleria mellonella, which was described in the previous study with minor modifications. The larvae of Galleria mellonella (250 ± 25 mg; Livefood UK Ltd., Rooks Bridge, UK) were selected. The MRSA culture was prepared the same way as the antimicrobial activity assay. Then, MRSA cells were collected and washed, and further diluted to 10^8 CFU/mL in the saline. Ten µL of MRSA suspension was injected to the larvae and placed in a petri dish. After 2 h, the MRSA infected larvae were administrated with 10 µL of peptides (25 mg/kg, 50 mg/kg) by injection. Saline and vancomycin (20 mg/kg) (Sigma-Aldrich, UK) were used as the negative control and positive control, respectively. Each sample group contained 10 larvae, and the experiment was repeated three times (30 larvae for each group in total). The survival curves were achieved using Prism (Version 6.0; GraphPad Software Inc., San Diego, CA, USA) and the log-rank test was employed to analyze the significance between the different treatments and the controls. * (p < 0.05), ** (p < 0.01) and *** (p < 0.001) represent statistical significance.
Figure A9 Larvae without any MRSA infection were injected with peptides and vancomycin respectively to access the cytotoxicity of the drugs to larvae bodies. […] Effect of treatment of G. mellonella larvae (n = 30 for each group) without any infection and only treated with 5 µL vancomycin (20 mg/kg), OSd, OSe and OSf.

[3] = system: E. coli; format: cell-based, Escherichia coli; settings: 24 h
Method: (§3) The minimal inhibitory concentrations (MICs) and minimum bactericidal concentrations (MBCs) were evaluated to determine the antimicrobial activity of synthetic peptides. The microorganisms employed in the study are two kinds of Gram-negative bacteria, Escherichia coli (NCTC 10418) and Pseudomonas aeruginosa (ATCC 27853), three kinds of Gram-positive bacteria, Staphylococcus aureus (NCTC 10788), Methicillin-resistant Staphylococcus aureus (MRSA, ATCC 12493) and Enterococcus faecalis (NCTC 12697) and a yeast, Candida albicans (NCPF 1467), as indicated previously. For antimicrobial assays, 5 × 10^5 CFU/mL of bacterial suspensions were incubated with the concentrations of the peptides (ranging from 1 µM to 512 µM) for 24 h at 37 °C. The sterilised broth medium was used as the positive control and the microorganism cultured in the medium only was treated as the negative control. […] The MBC results were defined as the lowest bactericidal concentrations of peptide. The antimicrobial activity of peptides was tested by monitoring the absorbance at 550 nm using an ELISA plate reader (Biolise BioTek EL808, Winooski, VT, USA).
(§4) The activity of peptides in the different environmental conditions including different concentrations of NaCl (50, 100 and 150 mM) and MgCl2 (0.5, 1 and 2 mM), pH (6, 7 and 8), temperature (50 °C, 75 °C and 100 °C) and 10% fetal bovine serum (FBS) solution, was evaluated using the broth microdilution assay as described in the antimicrobial activity assay. For the stability test of peptides in the presence of salt, pH and serum, these conditions were adjusted in the fresh medium that was further used to dilute the bacteria suspension. The peptides were also dissolved in such broth and mixed with the bacteria suspension in the 96 well plate. For the thermal stability test, the peptides were dissolved in the water and incubated at different temperature for 15 min before dosing in the plate. The sterilised broth with corresponding conditions was used as the positive controls, and the bacteria suspension without any treatment was used as the negative controls.

[4] = system: horse red blood cells; assay: Haemolysis assay and therapeutic index; settings: 2% horse red blood cells in PBS, 2 h, 37 °C, absorbance 570 nm; best-fitted curve
[5] = system: E. coli (NCTC 10418) biofilm; format: cell-based, Escherichia coli; settings: for MBIC50 / MBIC90: NCTC 10418, 24 h
Method: as §1, §2

[6] = system: MRSA; format: cell-based, Staphylococcus aureus; settings: 24 h
Method: as §3, §4

[7] = system: S. aureus; format: cell-based, Staphylococcus aureus; settings: 24 h
Method: as §3, §4

[8] = system: E. faecalis (NCTC 12697) biofilm; format: cell-based, Enterococcus faecalis; settings: for MBIC50 / MBIC90: NCTC 12697, 24 h
Method: as §1, §2

[9] = system: P. aeruginosa; format: cell-based, Pseudomonas aeruginosa; settings: 24 h
Method: as §3, §4

CC(C)C[C@H](NC(=O)[C@H](C)NC(=O)[C@H](Cc1c[nH]c2ccccc12)NC(=O)[C@H](CCCCN)NC(=O)[C@H](CC(C)C)NC(=O)[C@@H](N)Cc1ccccc1)C(=O)N[C@@H](CCCCN)C(=O)N[C@@H](Cc1c[nH]c2ccccc12)C(=O)N[C@@H](C)C(=O)N[C@@H](C)C(=O)N[C@@H](CCCCN)C(N)=O [OSe] (H-FLKWALKWAAK-NH2)
No noticeable cytotoxicity: toxicity to larvae without MRSA infection [2]
16 µM: MIC ([3]; pH 7) | MIC ([3]; pH 8) | MBIC50 [5] | MIC ([6]; pH 7) | MIC ([7]; pH 6)
64.03 µM: HC50 (concentration causing 50% haemolysis of the red blood cells) [4]
4 µM: MIC ([7]; pH 8)
8 µM: MIC ([6]; pH 8) | MIC ([7]; pH 7)
64 µM: MBIC50 [1] | MIC ([6]; pH 6) | MBIC50 [8] | MBIC90 [8] | MIC ([9]; pH 7)
128 µM: MBIC90 [1] | MBEC50 [8] | MBEC90 [8]
32 µM: MIC ([3]; pH 6) | MBIC90 [5] | MIC ([9]; pH 6) | MIC ([9]; pH 8)
> 512 µM: MBEC50 [1] | MBEC90 [1] | MBEC50 [5] | MBEC90 [5]

CC(C)C[C@H](NC(=O)[C@H](C)NC(=O)[C@H](Cc1c[nH]c2ccccc12)NC(=O)[C@H](CCCCN)NC(=O)[C@H](CC(C)C)NC(=O)[C@@H](N)Cc1ccccc1)C(=O)N[C@@H](CCCCN)C(=O)N[C@H](C(=O)N[C@@H](C)C(=O)N[C@@H](C)C(=O)N[C@@H](CCCCN)C(N)=O)C(C)C [OSd] (H-FLKWALKVAAK-NH2)
64 µM: MIC ([3]; pH 6) | MIC ([3]; pH 7) | MIC ([3]; pH 8) | MBIC50 [5] | MIC ([6]; pH 8) | MIC ([7]; pH 6) | MBIC50 [8] | MIC ([9]; pH 8)
> 512 µM: MBEC50 [1] | MBEC90 [1] | MBEC50 [5] | MBEC90 [5]
256 µM: MBIC90 [1] | MIC ([6]; pH 6) | MBEC90 [8]
32 µM: MIC ([7]; pH 7) | MIC ([7]; pH 8)
No noticeable cytotoxicity: toxicity to larvae without MRSA infection [2]
128 µM: MBIC50 [1] | MBIC90 [5] | MIC ([6]; pH 7) | MBEC50 [8] | MBIC90 [8] | MIC ([9]; pH 6) | MIC ([9]; pH 7)

CC(C)C[C@H](NC(=O)[C@H](C)NC(=O)[C@H](Cc1c[nH]c2ccccc12)NC(=O)[C@H](CCCCN)NC(=O)[C@@H]1CCCN1C(=O)[C@H](CC(C)C)NC(=O)[C@@H](N)Cc1ccccc1)C(=O)N[C@@H](CCCCN)C(=O)N[C@@H](Cc1c[nH]c2ccccc12)C(=O)N[C@@H](C)C(=O)N[C@@H](C)C(=O)N[C@@H](CCCCN)C(N)=O [OSf] (H-FLPKWALKWAAK-NH2; N-terminus assumed)
128 µM: MIC ([3]; pH 6) | MBIC90 [5] | MIC ([7]; pH 6) | MBEC50 [8] | MIC ([9]; pH 6)
328.3 µM: HC50 (concentration causing 50% haemolysis of the red blood cells) [4]
512 µM: MIC ([6]; pH 6)
> 512 µM: MBEC50 [1] | MBEC90 [1] | MBEC50 [5] | MBEC90 [5]
No noticeable cytotoxicity: toxicity to larvae without MRSA infection [2]
32 µM: MIC ([3]; pH 8) | MBIC50 [5] | MIC ([6]; pH 8) | MBIC50 [8]
8 µM: MIC ([3]; pH 7) | MIC ([7]; pH 7)
64 µM: MBIC50 [1] | MBIC90 [8] | MIC ([9]; pH 8)
256 µM: MBIC90 [1] | MBEC90 [8] | MIC ([9]; pH 7)
16 µM: MIC ([6]; pH 7) | MIC ([7]; pH 8)
